For data set [1] the following is noted: cited from earlier work.
For data set [2] the following is noted: exposure to 90% RH; cited from earlier work.

For Ribociclib succinate, the “sorption/desorption behavior, hydrate formation” value in data set [1] (90% RH condition in each cycle) is recorded as “formation of hydrate form is taking place”. The moisture absorbed result in data set [1] (at 90% RH in each cycle) is listed as “up to 2%”. Besides, in data set [1] (at high humidity conditions), the hygroscopic behavior result is recorded as “slight hygroscopic behavior”. For the same substance, the “physical form on exposure to humidity” value in data set [2] is “change in physical form”.
With Ribociclib succinate [Form B], the hygroscopicity entry was “negligible hygroscopicity”.

The record behind these values is patent US12421227B2, “Ribociclib salts and solid state forms thereof” (ASSIA CHEMICAL INDUSTRIES LTD., priority 2017, dated 2025).
